Test results taken from US20250034136A1 (Nimbus Wadjet, Inc., priority 2023, published 2025).
Read-outs that look alike come from different tables or passages of the source.

Legend:
[1] = target: WRN (BV08), human Werner helicase (Uniprot Q14191, amino acids 517-1235 with L1074F point mutation) (Homo sapiens (Human), UniProt Q14191, L1074F); assay: WRN (BV08) ADP-Glo assay; type: biochemical; conditions: class symbols A-E, read-out: ADP-Glo_hWRN_IC50
Method: Bovine skin gelatin (BSG), dimethyl sulfoxide (DMSO), Pluronic F-127 and tris(2-carboxyethyl)phosphine hydrochloride solution (TCEP) were purchased from Sigma-Aldrich (St. Louis, MO) at the highest level of purity possible. […] DNA strands were annealed by heating to 95° C. for 5 minutes followed by slow cooling to room temperature. Compounds in 100% DMSO (0.1 μl) were spotted into a 384-well white polystyrene Optiplate-384 (Perkin Elmer; Waltham, MA) assay plate using a LabCyte Echo 550 (Agilent; Santa Clara, CA). DMSO (0.1 μl) was added to columns 12, rows A-H and column 24, rows I-P for the maximum signal control. […] Compounds/DMSO were preincubated for 15 minutes at 25° C. with 5 μl 2×WRN (BV08), prepared as described below, in assay buffer containing 20 mM Bicine (pH=7.5), 1 mM MgCl2, 10 mM KCl, 0.1% Pluronic F-127, 0.005% BSG, 1 mM TCEP. The reaction was initiated by the addition of 5 μl 2× substrate mixture in assay buffer and incubated for 60 minutes at 25° C. The final concentrations of the assay components were 0.15 nM WRN, 5 μM ATP, and 0.1 nM DNA duplex. The final DMSO concentration was 1% and the reference compound concentration (NSC-617145) used for the minimal signal control was 20 μM. The reaction was stopped by the addition of the ADP-Glo Kit components (Promega; Madison, WI) as directed and the relative luminescence units (RLU) were read on an Envision 2104 (Perkin Elmer; Waltham, MA). % inhibition calculation:
[formula] • Where RLU=relative luminescence units, sample=signal in sample well, and MIN and MAX are the respective minimum and maximum signal controls.
[formula] • Where top and bottom are normally allowed to float but may be fixed at 100 or 0 respectively in a 3-parameter fit. Y is the % inhibition and X is the compound concentration.
Molecular Biology and virus production. […] The baculovirus from the expression plasmid WRN—BV08 was generated from transfection and amplification following the manufacturer's instructions.
Sf9 cells grown in SF900II media were infected with 1:200 WRN—BV08 P2 virus and incubated for protein expression for 72 h at 27° C. The WRN protein was purified using the following protocol. The cell pellets were thawed and resuspended in buffer A (50 mM Tris, pH 7.5, 500 mM NaCl, 1 mM TCEP, 10% Glycerol) supplemented with 0.5% CHAPS, 1 mM PMSF, 1 μg/ml Leupeptin, 1 μg/ml Pepstatin, and the Pierce Universal Nuclease and cocktail tablet. Cleared lysates were loaded onto a Ni Sepharose™ excel column and washed with buffer A and bound protein was eluted with buffer A supplemented with 300 mM imidazole. The eluted protein was dialyzed against buffer A and digested by His-tagged TEV (1:5 ratio) overnight at 4° C. ZnCl2 was added into the sample at final 15 μM before loading onto a second Ni Sepharose™ excel column. Untagged WRN protein was eluted from the column with buffer A supplemented with 20 mM imidazole, dialyzed overnight into buffer B (50 mM Tris, pH 7.5, 1 mM TCEP, 10% Glycerol) supplemented with 150 mM NaCl and loaded onto a Heparin column. Proteins were eluted with a step gradient of buffer B supplemented with 150 mM, 200 mM, 300 mM and 500 mM NaCl. WRN containing fractions were pooled and concentrated prior to loading on to size exclusion chromatography using a HiLoad 16/600 Superdex™ 200 pg column (GE Healthcare) in buffer C (20 mM HTEPES, pH 7.5, 250 mM NaCl, 0.25 mM TCEP, […]).

[2] = system: p21 induction in HCT116 cells; assay: p21 induction in HCT116 cells; type: cell-based; conditions: HCT116 cells, 24 h compound incubation, read-out: P21_EC50
Method: The colon carcinoma cell line HCT116 was obtained from ATCC and cultured in growth medium consisting of Mccoy's 5A Medium (Gibco 16600108) supplemented with 10% FBS (Transgene FS201-02) and 100 units/mL penicillin-streptomycin (Gibco 15140122) and maintained at 37° C. under 5% CO2. On the day of seeding, 2,000 cells in 30 μL of culture media were plated per well to Poly-D-Lysine 384 Well Black Clear Plates (Biocoat 356663) and incubated overnight at 37° C. under 5% CO2. The following day, compounds were serially diluted in DMSO for a total of 11 test concentrations. […] Next, 150 nL of diluted compound was added in duplicate to the assay plate, using an Echo 655 (Labcyte). The plate was centrifuged at 500 RPM for 1 min and then incubated at 37° C. under 5% CO2 for 24 h. After 24 h, medium was removed, and cells were fixed by adding 40 μL of 4% paraformaldehyde solution to each well and incubated for 20 min at room temperature. The plate was then washed 4 times with 100 μL per well of wash buffer (PBS with 0.1% Tween-20) using a microplate washer. Next, 30 μL of ice-cold methanol was added to each well and the plate was incubated at −20° C. for 10 min. The plate was washed 4 times with 100 μL per well of wash buffer by a microplate washer, then 30 μL per well of blocking buffer (Intercept PBS blocking buffer (LI-COR 927-70001) with 0.05% Tween-20) was added and the plate was incubated at room temperature with shaking for 2 h. Next, to each test well, 20 μL of primary antibody solution (p21 Waf1/CIP (12D1) RabbitmAb (Cell Signaling Technologies 2947) diluted 1:1000 and GAPDH (D4C6R) Mouse mAb (Cell Signaling Technologies 97166) diluted 1:2000 in blocking buffer) was added and the plate was placed at 4° C., overnight. The following day, the plate was washed 5 times with 100 μL per well of wash buffer using a microplate washer for 5 min. 20 μL per well of secondary antibody (IRDye 680CW Goat anti-Mouse IgG (H+L) (LI-COR 926-68070) diluted 1: 2000 in Blocking Buffer and IRDye 800CW Goat anti-Rabbit IgG (H+L) (LI-COR 926-32211) diluted 1: 2000 in Blocking Buffer) was then added and the plate was stored for 2 h in the dark at room temperature with shaking. The plate was then washed 4 times with 100 μL per well of wash buffer again using a microplate washer. Finally, the p21 signal and the GAPDH signal were quantified using a LI-COR Odyssey CLx Imager machine reading at 800 nm and 700 nm, respectively. Each plate contained DMSO control (low control) and an internal reference WRN inhibitor (high control) respectively. […] EC50 values for each compound were generated after non-linear regression curve fitting using commercially available software.

WRN (BV08), human Werner helicase (Uniprot Q14191, amino acids 517-1235 with L1074F point mutation), sequence (Q14191 other isoform, or with tags, fused parts or gaps L1074F (already in the parent)): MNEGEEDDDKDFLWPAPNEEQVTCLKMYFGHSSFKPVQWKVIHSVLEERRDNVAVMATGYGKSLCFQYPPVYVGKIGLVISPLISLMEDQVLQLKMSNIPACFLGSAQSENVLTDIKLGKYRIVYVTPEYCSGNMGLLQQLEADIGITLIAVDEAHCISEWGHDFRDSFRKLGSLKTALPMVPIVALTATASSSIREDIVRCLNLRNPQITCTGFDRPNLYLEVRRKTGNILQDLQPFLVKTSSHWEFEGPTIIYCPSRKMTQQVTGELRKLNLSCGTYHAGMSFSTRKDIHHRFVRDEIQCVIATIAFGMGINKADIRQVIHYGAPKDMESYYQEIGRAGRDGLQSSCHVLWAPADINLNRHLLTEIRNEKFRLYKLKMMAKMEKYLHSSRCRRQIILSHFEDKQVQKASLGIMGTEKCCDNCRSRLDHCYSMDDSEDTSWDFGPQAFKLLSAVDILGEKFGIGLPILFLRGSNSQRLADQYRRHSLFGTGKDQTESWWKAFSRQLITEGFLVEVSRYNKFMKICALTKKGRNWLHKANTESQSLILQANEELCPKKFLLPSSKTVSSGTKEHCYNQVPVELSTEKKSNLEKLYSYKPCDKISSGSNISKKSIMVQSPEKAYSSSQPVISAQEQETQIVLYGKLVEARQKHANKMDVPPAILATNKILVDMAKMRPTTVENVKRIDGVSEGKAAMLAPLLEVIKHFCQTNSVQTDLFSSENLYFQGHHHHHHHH

SMILES	IC50 [1] [nM]	EC50 ([2]; Homo sapiens, HCT-116, 24 h) [nM]	EC50 [2] [nM]
CCc1c(N2CCN(C(=O)c3ncnc(C)c3O)[C@H]3CCC32)c(=O)c2nc(OC)c(C)nc2n1CC(=O)Nc1ccc(C(F)(F)F)cc1Cl (mixture of isomers) [I-16, rac-N-(2-chloro-4-(trifluoromethyl)phenyl)-2-(6-ethyl-7-(5-(5-hydroxy-6-methylpyrimidine-4-carbonyl)-2,5-diazabicyclo[4.2.0]octan-2-yl)-2-methoxy-3-methyl-8-oxopyrido[2,3-b]pyrazin-5(8H)-yl)acetamide]	5 to 50	500 to 2000	–
CCc1c(N2CCN(C(=O)c3ncnc(C)c3O)[C@H]3CC[C@@H]32)c(=O)c2nc(NC)cnc2n1CC(=O)Nc1ccc(C(F)(F)F)cc1Cl (racemic) [I-97, rac-N-(2-chloro-4-(trifluoromethyl)phenyl)-2-(6-ethyl-7-(-5-(5-hydroxy-6-methylpyrimidine-4-carbonyl)-2,5-diazabicyclo[4.2.0]octan-2-yl)-2-(methylamino)-8-oxopyrido[2,3-b]pyrazin-5(8H)-yl)acetamide]	5 to 50	< 500	–
CCc1c(N2CCN(C(=O)c3ncnc(C)c3O)[C@@H]3CC[C@H]32)c(=O)c2nc(C=C3CCC3)cnc2n1CC(=O)Nc1ccc(C(F)(F)F)cc1Cl (racemic) [I-135]	5 to 50	< 500	–
CCO/C=C/c1cnc2c(n1)c(=O)c(N1CCN(C(=O)c3ncnc(C)c3O)[C@H]3CC[C@@H]31)c(CC)n2CC(=O)Nc1ccc(C(F)(F)F)cc1Cl (racemic) [I-136, rac-N-[2-chloro-4-(trifluoromethyl)phenyl]-2-{2-[(1E)-2-ethoxyethenyl]-6-ethyl-7-[-5-(5-hydroxy-6-methylpyrimidine-4-carbonyl)-2,5-diazabicyclo[4.2.0]octan-2-yl]-8-oxo-5H,8H-pyrido[2,3-b]pyrazin-5-yl}acetamide]	5 to 50	< 500	–
CCc1c(N2CCN(C(=O)c3ncnc(C)c3O)[C@H]3CC[C@@H]32)c(=O)c2nc(N3CC[C@H]4C[C@H]43)cnc2n1CC(=O)Nc1ccc(C(F)(F)F)cc1F (relative stereo) [I-122, 2-(2-((1R*,5S*)-2-azabicyclo[3.1.0]hexan-2-yl)-6-ethyl-7-((1S,6S)-5-(5-hydroxy-6-methylpyrimidine-4-carbonyl)-2,5-diazabicyclo[4.2.0]octan-2-yl)-8-oxopyrido[2,3-b]pyrazin-5(8H)-yl)-N-(2-fluoro-4-(trifluoromethyl)phenyl)acetamide]	≤ 5	< 500	–
CCc1c(N2CCN(C(=O)c3ncnc(C)c3O)[C@@H](COC)C2)c(=O)c2nc(N(C)C)cnc2n1CC(=O)Nc1ccc(C(F)(F)F)cc1Cl (single isomer, unassigned) [I-96, N-(2-chloro-4-(trifluoromethyl)phenyl)-2-(2-(dimethylamino)-6-ethyl-7-(4-(5-hydroxy-6-methylpyrimidine-4-carbonyl)-3-(methoxymethyl)piperazin-1-yl)-8-oxopyrido[2,3-b]pyrazin-5(8H)-yl)acetamide]	5 to 50	–	> 5000

Continued, values first:

IC50 [1] [nM]	EC50 ([2]; Homo sapiens, HCT-116, 24 h) [nM]	EC50 [2] [nM]	SMILES
5 to 50	500 to 2000	–	CCc1c(N2CCN(C(=O)c3c(O)ccnc3OC)[C@@H]3CC[C@H]32)c(=O)c2nc(N(C)C)cnc2n1CC(=O)Nc1ccc(C(F)(F)F)cc1Cl (racemic) [I-139, rac-N-[2-chloro-4-(trifluoromethyl)phenyl]-2-[2-(dimethylamino)-6-ethyl-7-[-5-(4-hydroxy-2-methoxypyridine-3-carbonyl)-2,5-diazabicyclo[4.2.0]octan-2-yl]-8-oxo-5H,8H-pyrido[2,3-b]pyrazin-5-yl]acetamide]
5 to 50	2000 to 5000	–	CCc1c(N2CCN(C(=O)c3ncnc(C)c3O)CC2)c(=O)c2nc(N(C)[C@H]3CC[C@@H]3OC)cnc2n1CC(=O)Nc1ccc(C(F)(F)F)cc1Cl (racemic) [I-143, rac-N-(2-chloro-4-(trifluoromethyl)phenyl)-2-(6-ethyl-7-(4-(5-hydroxy-6-methylpyrimidine-4-carbonyl)piperazin-1-yl)-2-((2-methoxycyclobutyl)(methyl)amino)-8-oxopyrido[2,3-b]pyrazin-5(8H)-yl)acetamide]
5 to 50	2000 to 5000	–	CCc1c(N2CCN(C(=O)c3ncnc(C)c3O)CC2)c(=O)c2nc(N(C)[C@H]3CC[C@H]3OC)cnc2n1CC(=O)Nc1ccc(C(F)(F)F)cc1Cl (racemic) [I-146, rac-N-(2-chloro-4-(trifluoromethyl)phenyl)-2-(6-ethyl-7-(4-(5-hydroxy-6-methylpyrimidine-4-carbonyl)piperazin-1-yl)-2-((2-methoxycyclobutyl)(methyl)amino)-8-oxopyrido[2,3-b]pyrazin-5(8H)-yl)acetamide]
5 to 50	< 500	–	CCc1c(N2CCN(C(=O)c3ncnc(C)c3O)CC2)c(=O)c2nc(N3CC[C@@H]4CC[C@@H]43)cnc2n1CC(=O)Nc1ccc(C(F)(F)F)cc1Cl (racemic) [I-230, rac-2-(2-(2-azabicyclo[3.2.0]heptan-2-yl)-6-ethyl-7-(4-(5-hydroxy-6-methylpyrimidine-4-carbonyl)piperazin-1-yl)-8-oxopyrido[2,3-b]pyrazin-5(8H)-yl)-N-(2-chloro-4-(trifluoromethyl)phenyl)acetamide]
5 to 50	2000 to 5000	–	CCc1c(N2CCN(C(=O)c3ncnc(C)c3O)[C@H]3CC(F)(F)C[C@@H]32)c(=O)c2nc(N(C)C)cnc2n1CC(=O)Nc1ccc(C(F)(F)F)cc1Cl (racemic) [I-291, rac-N-(2-chloro-4-(trifluoromethyl)phenyl)-2-(7-(6,6-difluoro-4-(5-hydroxy-6-methylpyrimidine-4-carbonyl)octahydro-1H-cyclopenta[b]pyrazin-1-yl)-2-(dimethylamino)-6-ethyl-8-oxopyrido[2,3-b]pyrazin-5(8H)-yl)acetamide]
